In patent publication US20240368122A1, “JAK2 INHIBITORS AND METHODS OF USE THEREOF” (RELAY THERAPEUTICS, INC., priority 2021, published 2024):
Read-outs that look alike come from different tables or passages of the source.

Assays:
[1] = test system: TF1 JAK2 V617F STAT3 reporter; assay: Cellular TF1 STAT3 assay (luciferase reporter), JAK2 V617F; format: cell-based; conditions: read-out: Cell PD-TF1 JAK2 V617F STAT3 (IC50)
Summary of the method: (§1)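 Measured in TF1 cells with mutant JAK2 V617F and STAT-responsive luciferase: 18-20 h compound exposure at 37 °C, then ONE-glo luminescence.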

[2] = test system: TF1 JAK2 V617F STAT5 reporter; assay: Cellular TF1 STAT5 assay (luciferase reporter), JAK2 V617F; format: cell-based; conditions: read-out: Cell PD TF1 V617F STAT5 (IC50)
Summary of the method: as §1

[3] = molecular target: T1, JAK2 JH2 WT (V536-D812) [W659A, W777A, F794H solubilizing mutations] (Homo sapiens, UniProt O60674, F794H/W659A/W777A); assay: Surface Plasmon Resonance (SPR) binding assay, JAK2 JH2 domain
T1 construct: **JAK2 JH2 WT (V536-D812) [W659A, W777A, F794H solubilizing mutations]; C-thrombin-avi-His6; thrombin cleavage site (C); His6 (C); purchased Biortus
T1 sequence (O60674 536-812 W659A/W777A/F794H): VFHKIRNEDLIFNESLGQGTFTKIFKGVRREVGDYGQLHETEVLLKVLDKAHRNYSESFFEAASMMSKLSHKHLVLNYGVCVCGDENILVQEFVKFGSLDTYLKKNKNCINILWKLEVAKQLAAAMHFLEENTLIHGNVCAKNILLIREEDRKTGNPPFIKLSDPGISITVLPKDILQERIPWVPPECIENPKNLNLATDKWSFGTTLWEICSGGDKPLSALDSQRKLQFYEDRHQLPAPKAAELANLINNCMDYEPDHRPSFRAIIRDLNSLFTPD
Summary of the method: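 Kinetics came from 1:1 fits of single-cycle runs at 20 °C: four 3-fold dilutions from 5 uM for JH1 or 500 nM for JH2, 60 s association, and 300 s or 1200 s dissociation respectively. Protein was freshly captured per compound in the presence of 10 uM stabilizer compound, with running buffer of pH 7.5 HEPES/NaCl/glycerol/DTT plus 2% DMSO.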

[4] = Homo sapiens, TF-1, TF1 cells, JAK2 V617F

IC50 ([1]; TF1 JAK2 V617F) [nM] | IC50 ([2]; TF1 JAK2 V617F) [nM] | Kd ([3]; SPR, JAK2 JH2 domain) [nM] | IC50 [1, 4] [nM] | IC50 [2, 4] [nM] | Kd [3] [nM] | Structure (SMILES)
5000 to 100000 | 5000 to 100000 | 10 to 50 |  |  |  | CNC(=O)c1nnc(NC(=O)C2CC2)cc1Nc1cccc(-c2ccc(C(=O)N(C)Cc3ccc(F)cc3)cc2)c1OC [Compound 95]
 |  |  | 50 to 500 | 50 to 500 | 0.01 to 10 | CNC(=O)c1nnc(NC(=O)C2CC2)cc1Nc1ccc(C)c(-c2ccc(C(=O)N(C)Cc3cc(C(F)F)ccn3)nc2)c1OC [Compound 296]
500 to 5000 | 500 to 5000 | 0.01 to 10 |  |  |  | CNC(=O)c1nnc(NC(=O)C2CC2)cc1Nc1cccc(-c2ccc(C(=O)N(C)Cc3cccc(OC(F)F)n3)nc2)c1OC [Compound 179]
 |  |  | 5000 to 100000 | 5000 to 100000 | 10 to 50 | CNC(=O)c1nnc(NC(=O)C2CC2)cc1Nc1cccc(-c2ccc(C(=O)N(C)C[C@@H]3CCCC3(F)F)nc2)c1OC (single isomer, unassigned) [Compound 225]
 |  | 0.01 to 10 | 500 to 5000 | 50 to 500 |  | CNC(=O)c1nnc(NC(=O)C2CC2)cc1Nc1cccc(-c2cnn([C@H]3C[C@@H]([C@H](O)c4ccccn4)C3)c2)c1OC (single isomer, unassigned) [Compound 399]
50 to 500 | 50 to 500 | 0.01 to 10 |  |  |  | CNC(=O)c1nnc(NC(=O)C2CC2)cc1Nc1cccc(-c2cnn(C3CN(Cc4cccc(OC)n4)C3)c2)c1OC [Compound 107]
 |  |  | 50 to 500 | 50 to 500 | 0.01 to 10 | CNC(=O)c1nnc(NC(=O)C2CC2)cc1Nc1cccc(-c2cnn(C3CN(Cc4cccn(C)c4=O)C3)c2)c1OC [Compound 267]
 |  |  | 50 to 500 | 50 to 500 | 0.01 to 10 | CNC(=O)c1nnc(NC(=O)C2CC2)cc1Nc1cccc(-c2cn([C@H]3CN(Cc4cccc(C)n4)[C@@H]3C)nn2)c1OC (stereo in doubt) [Compound 235]
 |  |  | 5000 to 100000 | 5000 to 100000 | 10 to 50 | CNC(=O)c1nnc(NC(=O)C2CC2)cc1Nc1cccc(-c2ccc(C(=O)N(C)C[C@H]3CCCC3(F)F)nc2)c1OC (single isomer, unassigned) [Compound 226]
 |  |  | 50 to 500 | 50 to 500 | 0.01 to 10 | CNC(=O)c1nnc(NC(=O)C2CC2)cc1Nc1ccc(C)c(-c2ccc(C(=O)N(C)Cc3cc(S(C)(=O)=O)ccn3)nc2)c1OC [Compound 347]
500 to 5000 | 500 to 5000 | 0.01 to 10 |  |  |  | CNC(=O)c1nnc(NC(=O)C2CC2)cc1Nc1cccc(-c2ccc(C(=O)N(C)Cc3cnsc3)nc2)c1OC [Compound 195]
 |  |  | 50 to 500 | 50 to 500 | 0.01 to 10 | CNC(=O)c1nnc(NC(=O)C2CC2)cc1Nc1cccc(-c2cnn(C3CN(Cc4cccc(C(=O)N5CCC(C(F)(F)F)C5)n4)C3)c2)c1OC (stereo not drawn) [Compound 358]
 |  |  | 500 to 5000 | 500 to 5000 | 0.01 to 10 | CNC(=O)c1nnc(NC(=O)C2CC2)cc1Nc1cccc(-c2cnn([C@H]3C[C@H](Cc4cccc(C#N)n4)C3)c2)c1OC [Compound 349]
 |  |  | 500 to 5000 | 500 to 5000 | 0.01 to 10 | CNC(=O)c1nnc(NC(=O)C2CC2)cc1Nc1cccc(-c2cnn([C@@H]3CN(Cc4cccc(C#N)n4)[C@H]3C)c2)c1OC [Compound 310]
 |  |  | 50 to 500 | 50 to 500 | 0.01 to 10 | CNC(=O)c1nnc(NC(=O)C2CC2)cc1Nc1cccc(-c2cnn(C3CN(Cc4cccc5c(F)cnn45)C3)c2)c1OC [Compound 381]
 |  |  | 500 to 5000 | 50 to 500 | 0.01 to 10 | CNC(=O)c1nnc(NC(=O)C2CC2)cc1Nc1ccc(Cl)c(-c2ccc(C(=O)N(C)Cc3ccn(C)n3)nc2)c1OC [Compound 223]
5000 to 100000 | 5000 to 100000 | 0.01 to 10 |  |  |  | CNC(=O)c1nnc(NC(=O)C2CC2)cc1Nc1cccc(-c2ccc(C(=O)N(CCOC)Cc3cccn(C)c3=O)nc2)c1OC [Compound 15]
 |  |  | 500 to 5000 | 500 to 5000 | 0.01 to 10 | CNCc1cnc(CN(C)C(=O)c2ccc(-c3cccc(Nc4cc(NC(=O)C5CC5)nnc4C(=O)NC)c3OC)cn2)s1 [Compound 282]
5000 to 100000 | 5000 to 100000 | 10 to 50 |  |  |  | CNC(=O)c1nnc(NC(=O)C2CC2)cc1Nc1cccc(-c2ccc(C(=O)N3CCc4cccnc4C3)nc2)c1OC [Compound 108]
 |  |  | 50 to 500 | 10 to 50 | 0.01 to 10 | CCN(C)C(=O)c1cccc(CN2CC(n3cc(-c4cccc(Nc5cc(NC(=O)C6CC6)nnc5C(=O)NC)c4OC)cn3)C2)n1 [Compound 354]
50 to 500 | 50 to 500 | 0.01 to 10 |  |  |  | CNC(=O)c1nnc(NC(=O)C2CC2)cc1Nc1cccc(-c2ccc(C(=O)N(C)Cc3cn(C)nc3C(F)(F)F)nc2)c1OC [Compound 51]

IC50 ([1]; TF1 JAK2 V617F) [nM] | IC50 ([2]; TF1 JAK2 V617F) [nM] | Kd ([3]; SPR, JAK2 JH2 domain) [nM] | IC50 [1, 4] [nM] | IC50 [2, 4] [nM] | Kd [3] [nM] | Structure (SMILES)
 |  |  | 50 to 500 | 10 to 50 | 0.01 to 10 | CNC(=O)c1nnc(NC(=O)C2CC2)cc1Nc1cccc(-c2cnn(C3CN(Cc4cccc(C(=O)N5CCC(F)(F)C5)n4)C3)c2)c1OC [Compound 357]
5000 to 100000 | 5000 to 100000 | 10 to 50 |  |  |  | CNC(=O)c1nnc(NC(=O)C2CC2)cc1Nc1cccc(-c2ccc(C(=O)N(C)CC(F)F)nc2)c1OC [Compound 114]
 |  |  | 50 to 500 | 50 to 500 | 0.01 to 10 | CC#Cc1cccc(CN2CC(n3cc(-c4cccc(Nc5cc(NC(=O)C6CC6)nnc5C(=O)NC)c4OC)cn3)C2)n1 [Compound 281]
500 to 5000 | 500 to 5000 | 0.01 to 10 |  |  |  | CNC(=O)c1nnc(NC(=O)C2CC2)cc1Nc1cccc(-c2ccc(C(=O)N(C)Cc3ccc(OC(F)F)cc3)nc2)c1OC [Compound 85]
5000 to 100000 | 5000 to 100000 | 10 to 50 |  |  |  | CNC(=O)c1nnc(NC(=O)C2CC2)cc1Nc1cccc(-c2ccc(C(=O)N(C)Cc3cc(C#N)ccn3)nc2C2CC2)c1OC [Compound 137]
 |  |  | 50 to 500 | 50 to 500 | 10 to 50 | CNC(=O)c1nnc(NC(=O)C2CC2)cc1Nc1cccc(-c2cnn(C3CN(Cc4cccc(C(O)C(C)C)n4)C3)c2)c1OC (stereo not drawn) [Compound 308]
 |  |  | 50 to 500 | 50 to 500 | 0.01 to 10 | CNC(=O)c1nnc(NC(=O)C2CC2)cc1Nc1cccc(-c2cnn(C3CN(Cc4cccc(C(C)(C)CO)n4)C3)c2)c1OC [Compound 300]
50 to 500 | 50 to 500 | 0.01 to 10 |  |  |  | CNC(=O)c1nnc(NC(=O)C2CC2)cc1Nc1cccc(-c2cnn(C3CN(Cc4cccc(C)n4)C3)c2)c1OC [Compound 106]
 |  |  | 5000 to 100000 | 5000 to 100000 | 10 to 50 | CNC(=O)c1nnc(NC(=O)C2CC2)cc1Nc1ccc(C)c(-c2ccc(C3CN(Cc4cc(C#N)ccn4)C3)nc2)c1OC [Compound 321]
 |  |  | 500 to 5000 | 500 to 5000 | 0.01 to 10 | CNC(=O)c1nnc(NC(=O)C2CC2)cc1Nc1cccc(-c2ccc(C3CN(Cc4cc(S(C)(=O)=O)ccn4)C3)nc2)c1OC [Compound 330]
500 to 5000 | 500 to 5000 | 0.01 to 10 |  |  |  | CNC(=O)c1nnc(NC(=O)C2CC2)cc1Nc1cccc(-c2cnn(C3CN(Cc4ccccc4)C3)c2)c1OC [Compound 130]
50 to 500 | 50 to 500 | 0.01 to 10 |  |  |  | CNC(=O)c1nnc(NC(=O)C2CC2)cc1Nc1cccc(-c2ccc(C(=O)N(C)Cc3c(C)nn(C)c3C)nc2)c1OC [Compound 168]
 |  |  | 5000 to 100000 | 5000 to 100000 | 10 to 50 | CNC(=O)c1nnc(NC(=O)C2CC2)cc1Nc1cccc(-c2cnc(C3CN(Cc4cccn(C)c4=O)C3)nc2)c1OC [Compound 326]
 |  |  | 5000 to 100000 | 500 to 5000 | 0.01 to 10 | CNC(=O)c1nnc(NC(=O)OC2CC2)cc1Nc1cccc(-c2cnn(C3CC(Oc4cccc(C#N)n4)C3)c2)c1OC (mixture of isomers) [Compound 345]
 |  |  | 50 to 500 | 50 to 500 | 0.01 to 10 | CNC(=O)c1nnc(NC(=O)C2CC2)cc1Nc1cccc(-c2cnn(C3CN(Cc4cc(C(F)F)cc(C#N)n4)C3)c2)c1OC [Compound 344]
 |  |  | 500 to 5000 | 500 to 5000 | 0.01 to 10 | CNC(=O)c1nnc(NC(=O)C2CC2)cc1Nc1cccc(-c2ccc(C(=O)N(C)Cc3ncc(COC)s3)cc2)c1OC [Compound 316]
 |  |  | 5000 to 100000 | 500 to 5000 | 50 to 500 | CCOc1cccc(CN2CC(c3ccc(-c4cccc(Nc5cc(NC(=O)C6CC6)nnc5C(=O)NC)c4OC)cn3)C2)n1 [Compound 389]
 |  |  | 50 to 500 | 50 to 500 | 0.01 to 10 | CNC(=O)c1nnc(NC(=O)C2CC2)cc1Nc1cccc(-c2cnn(C3CN(Cc4cccc(C5(C)COC5)n4)C3)c2)c1OC [Compound 369]
5000 to 100000 | 5000 to 100000 | 10 to 50 |  |  |  | CNC(=O)c1nnc(NC(=O)C2CC2)cc1Nc1cccc(-c2ccc(C(=O)N(C)C[C@@H]3CCCO3)nc2)c1OC (single isomer, unassigned) [Compound 140]
 |  |  | 50 to 500 | 50 to 500 | 0.01 to 10 | CNC(=O)c1nnc(NC(=O)C2CC2)cc1Nc1cccc(-c2cn(C3CN(Cc4cccc(C(F)F)n4)C3)cn2)c1OC [Compound 341]
